Reference: patent US11173144B2, “Adrenergic receptor modulating compounds and methods of using the same” (The Board of Trustees of the Leland Stanford Junior …, priority 2016, dated 2021)
Read-outs that look alike come from different tables or passages of the source.

What was measured:
[1] = Pharmacokinetic study, 4 hour time course; format: in vivo, Sprague-Dawley rats; settings: rat; for AUC(0-inf) / Cmax / bioavailability: Sprague-Dawley, 10 mg/kg; for AUC(0-inf): AUCinf
Description: Two cohorts of Sprague-Dawley rats are used in two independent studies. All animals are fasted overnight before the experiment with free access to water. In study 1, a total of 18 rats are used for a 4 h time course pharmacokinetic (PK) study. […] On the day of the experiment, xamoterol is freshly prepared in saline. […] Four hours post-dose, rats are deeply anesthetized with isoflurane and blood samples are collected by cardiac puncture. In study 2, a total of 18 rats are used for a 20 min post-dose collection study. […] At 20 min post-dose, rats are deeply anesthetized with isoflurane and blood samples are collected by cardiac puncture. Brains are collected after perfusion with phosphate buffered saline. […] LC separation is carried out on a Phenomenex Synergi Polar-RP column (2.5 μm, 2 mm×50 mm) with a flow rate of 0.25 ml/min at room temperature. Mobile phase A consisted of 10 mM ammonium acetate and 0.1% formic acid in LCMS grade water. Mobile phase B consisted of 10 mM ammonium acetate and 0.1% formic acid in LCMS grade acetonitrile: water 90:10% (v/v). […] Five μl of the extracted samples is injected. The mass spectrometer is operated in the positive mode with multiple-reaction monitoring (MRM) with the transition m/z 334.1→210.1 and 334.1→100.2.

[2] = system: heart rate and blood pressure; experiment: Cardiovascular studies (heart rate and blood pressure) in anesthetized rats; format: in vivo, Sprague-Dawley rats; settings: 3 mg/kg subcutaneous
Description: Adult rats are anesthetizes using isoflurane and are accommodated on a heated platform warmed to 36° C. A jugular catheter (for IV administration of the drug) and an intra-arterial catheter (tail artery, for blood pressure measurements) are implanted under 2.5% isoflurane. To avoid clotting, all animals received a single dose of heparin after intravenous cannulation. Intra-arterial catheter was then connected to a pressure transducer coupled to a computerized data acquisition system (PowerLab) and its application software (LabChart 8)[AD Instruments (Australia)]. Mean blood pressure and the hear rate was analyzed and plotted using prism software.
Briefly, rats are anesthetized with 3-4% isoflurance and 1 cm longitudinal incision is made on the ventral aspect of the tail exposing the tail artery. Polyethylene catheter (PE50) filled with heparinized saline is then inserted into the tail artery and connected to blood pressure transducer system. After assuring absence of any air bubbles, 5-10 min of baseline systolic and diastolic blood pressure along with heart rate are recorded using LabChart Pro (AD Instruments).
FIG. 9 illustrates the effect of exemplary compounds on average heart rate in a rat in comparison with reference compounds isoprenaline and ICI 118,551. FIG. 10 illustrates the effect of exemplary compounds on blood pressure in a rat in comparison with reference compounds isoprenaline and ICI 118,551.

α1A adrenergic receptor = α1A adrenergic receptor (Homo sapiens (Human), UniProt P35348); experiment: CNS target panel screen: α1A adrenergic receptor; format: binding
Chain of α1A adrenergic receptor (P35348 whole entry): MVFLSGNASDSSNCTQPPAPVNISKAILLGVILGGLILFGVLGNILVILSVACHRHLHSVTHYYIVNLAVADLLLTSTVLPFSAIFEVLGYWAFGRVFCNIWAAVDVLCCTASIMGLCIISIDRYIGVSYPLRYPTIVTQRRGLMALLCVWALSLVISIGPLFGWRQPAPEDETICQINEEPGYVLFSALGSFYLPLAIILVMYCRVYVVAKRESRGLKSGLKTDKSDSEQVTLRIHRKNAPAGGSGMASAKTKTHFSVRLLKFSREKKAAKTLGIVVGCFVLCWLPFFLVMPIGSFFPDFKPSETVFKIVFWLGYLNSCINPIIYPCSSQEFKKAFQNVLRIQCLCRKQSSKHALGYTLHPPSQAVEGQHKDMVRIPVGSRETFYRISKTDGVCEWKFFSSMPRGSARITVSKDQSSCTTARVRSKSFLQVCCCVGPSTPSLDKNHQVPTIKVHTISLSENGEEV
Excerpt: (§1) From a drug development perspective, characterizing the off-target effects of lead compounds is an important issue, as interactions with off-target molecules may lead to undesirable side effects. Thus we screened xamoterol (S) and the key compound compound 43 against a panel of CNS relevant targets, including G-protein coupled receptor and transporters. […].

[3] = system: panel of CNS relevant targets, including G-protein coupled receptor and transporters; experiment: Screen against a panel of CNS relevant targets (off-target affinity); format: binding
Excerpt: as §1

[4] = system: tMCAO rat model of stroke; experiment: tMCAO model of stroke, Paw-Whisker test of sensorimotor function; format: in vivo; settings: 3 mg/kg then 0.3 mg/kg daily subcutaneous, 28 days
Description: The tMCAO is performed on animal under isoflurane inhalation anesthesia (4% for induction and 1.5-2.5% for maintenance) in airoxygen mixture ratio 3:1. Ventral neck area is shaved by electric razor and disinfected using betadine followed by 70% ethanol solution. Subsequently, a midline incision is made in the ventral neck area, sharp and blunt dissection techniques are used to isolate left common carotid artery (CCA) and the internal and external carotid arteries (ICA and ECA, respectively). The proximal CCA is ligated below the bifurcation using 3-0 braided silk suture allowing enough room for filament insertion in the area between the ligation and bifurcation. Subsequently, ECA is ligated at its origin dose to the CCA bifurcation, so that the occipital artery stays proximal to the ligature. A microvessel dip is placed on ICA temporarily to avoid excessive bleeding during filament insertion. In order to occlude the origin of middle cerebral artery (MCA), a monofilament with silicon coated tip (0.39 mm diameter, 5-6 mm long) is then inserted into the CCA, the microvessel dip removed following filament advancement into the ICA 20 mm from the bifurcation through small, horizontal incision. […] Sensorimotor function was measured by the Paw-Whisker test (vibrissae-evoked forelimb placing) once a week until 4 weeks post stroke. […]

[5] = system: transient middle cerebral artery occlusion (tMCAO) model of stroke; experiment: tMCAO model of stroke, infarction volume; format: in vivo; settings: rat tMCAO, 3 mg/kg, 21 days
Description: The tMCAO is performed on animal under isoflurane inhalation anesthesia (4% for induction and 1.5-2.5% for maintenance) in airoxygen mixture ratio 3:1. Ventral neck area is shaved by electric razor and disinfected using betadine followed by 70% ethanol solution. Subsequently, a midline incision is made in the ventral neck area, sharp and blunt dissection techniques are used to isolate left common carotid artery (CCA) and the internal and external carotid arteries (ICA and ECA, respectively). The proximal CCA is ligated below the bifurcation using 3-0 braided silk suture allowing enough room for filament insertion in the area between the ligation and bifurcation. Subsequently, ECA is ligated at its origin dose to the CCA bifurcation, so that the occipital artery stays proximal to the ligature. A microvessel dip is placed on ICA temporarily to avoid excessive bleeding during filament insertion. In order to occlude the origin of middle cerebral artery (MCA), a monofilament with silicon coated tip (0.39 mm diameter, 5-6 mm long) is then inserted into the CCA, the microvessel dip removed following filament advancement into the ICA 20 mm from the bifurcation through small, horizontal incision. The filament is secured in its place by a suture knot placed between the bifurcation and proximal CCA ligature. […]

C57bl/6J mice = experiment: Neurogenesis, doublecortin-immunoreactive neuroblast counts in dentate gyrus; settings: 0.3 mg/kg subcutaneous daily from 3.5 to 6.0 months of age
5XFAD mice = experiment: Chronic xamoterol in 5XFAD mouse model of Alzheimer's disease, cortex qRT-PCR of inflammation genes; settings: 3 mg/kg/day by mini-osmotic pump, 2.5 months

SMILES | AUC(0-inf) ([1]; in vivo, ip) [ng·h/mL] | Cmax ([1]; in vivo, ip, Cmax) [ng/mL] | AUC(0-inf) ([1]; in vivo, iv) [ng·h/mL] | Cmax ([1]; in vivo, iv, Cmax) [ng/mL] | bioavailability ([1]; in vivo, po) [%] | Cmax ([1]; in vivo, po, 10 mg/kg PO - Portal vein, read-out: Cmax) [ng/mL] | Cmax ([1]; in vivo, po, 10 mg/kg PO - Systemic (jugular vein), read-out: Cmax) [ng/mL] | time of maximum concentration in systemic plasma ([1]; 10 mg/kg IP) [min] | clearance ([1]; 4 hour time-course PK study) | effect on blood pressure [2] | effect on heart rate [2] | affinity for α1A adrenergic receptor (α1A adrenergic receptor) | affinity for opioid, histamine, and muscarinic acetylcholine receptors [3] | clearance ([1]; in vivo) | sensorimotor function [4] | infarction volume [5] | neurogenesis (neuroblast counts in dentate gyrus) (C57bl/6J mice) | expression of inflammation genes in cortex (5XFAD mice)
COc1ccccc1OCCNC[C@H](O)COc1ccc(O)cc1 [Compound 43] | 2160 ± 310 | 762 ± 67 | 1800 ± 256 | 4000 ± 1110 | 6 | 946 | 116 | 90 | cleared more slowly | significant reduction | did not produce significant effects | significant affinity | nominal affinity |  |  |  |  | 
O=C(NCCNCC(O)COc1ccc(O)cc1)N1CCOCC1 (stereo not shown) [Xamoterol, reference compound] | 2830 ± 517 | 7440 ± 730 | 2450 ± 601 | 22200 ± 4030 | 1.7 |  |  |  |  | significant reduction | did not produce significant effects |  |  | cleared rapidly | improves sensorimotor function | reduces infarction volume | increases neurogenesis | attenuated elevated expression of Iba1, CD74, CD14 and TGFb
